Reference: paper PMC9211397, “High-Throughput Screening Platform To Identify Inhibitors of Protein Synthesis with Potential for the Treatment of Malaria” (Antimicrobial Agents and Chemotherapy, 2022)
Where two headings read alike, the source gives them in different places.

Experiments:
[1] = target: P. falciparum translation (P. falciparum lysate); experiment: P. falciparum in vitro translation (PfIVT) assay, lysate-based, luciferase reporter; type: biochemical, Plasmodium falciparum; conditions: for PfIVT inhibition at 30 μM (%): single-point screen; for selectivity index/window, PfIVT compared to HsIVT: HsIVT IC50 over PfIVT IC50
Source text: (§1) Our P. falciparum in vitro translation (PfIVT) assay is built upon previously established assays ([14], [17]) and is summarized in Fig. 1A. In this assay, successful reconstitution of Plasmodium protein translation is reported via synthesis of a luciferase reporter. For PfIVT, two independent untranslated regions (UTRs), previously shown to promote strong levels of translation ([17]), were introduced upstream and downstream of the luciferase. The 5′ UTR from P. falciparum histidine-rich protein 3 (PfHrp3) ([18]) was introduced upstream of the reporter gene, and the 3′ UTR from P. falciparum histidine-rich protein 2 (PfHrp2) gene ([19]) was introduced downstream. For the reporter construct to support our complementary human IVT assay (HsIVT), the 5′ UTR was replaced with an internal ribosome entry site (IRES) from encephalomyocarditis virus (EMCV) ([20]) and the 3′ UTR was replaced with a poly(A) tail ([21]). […] Finally, a 30-bp poly(A) tail, present within the vector and downstream of the luciferase gene, was inserted to enhance mRNA stability ([21]).
(§2) Translationally active P. falciparum or human embryonic kidney (HEK) 293F lysates were supplemented with accessory, helper, amino acid, and energy regeneration solutions (see Materials and Methods for details). In vitro translation reactions were initiated by the addition of purified mRNA to each reaction well. Using this basic assay format, a number of parameters were assessed and optimized, namely, assay temperature, time, mRNA concentration, and reaction volume (summarized in Fig. S2 in the supplemental material). In addition, we compared the luminescence signal of the CBG firefly luciferase with CBG99, derived from the click beetle […] ([18]).
3D7 parasites were synchronized following two rounds of treatment with D-sorbitol (5%), as previously described ([40]). The hematocrit was reduced from 5% (for standard culture) to 1.5 to 2% and cultures were transferred into HYPERflasks (Corning). Fresh medium was added once or twice daily. […] Harvested red blood cells (infected) were lysed by incubation in 0.1% (wt/vol) saponin on ice for 10 min with gentle agitation. Free parasites were harvested by centrifugation (2,800 × g, 10 min, 4°C) and washed 3 times in wash buffer (WB; 100 mM potassium acetate, 2.5 mM magnesium acetate, 45 mM HEPES [pH 7.4], 250 mM sucrose, 2 mM dithiothreitol, and 15 μM leupeptin) to remove lysed red blood cell debris. The resulting pellet was resuspended in 1 volume of WB supplemented with cOmplete EDTA-free protease inhibitor cocktail (Roche; 1 tablet/20 mL) and human RNase A inhibitor (Sigma; 5 U/mL). Parasite lysis was achieved by nitrogen cavitation using a prechilled 45-mL Parr cell disruption vessel (1,500 lb/in^2, 60 min, 4°C). To clarify the lysate, it was centrifuged (10,000 × g, 15 min, 4°C), and the supernatant was collected, transferred into fresh tubes, and centrifuged (30,000 × g, 15 min, 4°C). As a quality assurance step for each lysate, the RNA content of the resulting supernatant was determined using a NanoDrop spectrophotometer (Shimadzu). Supernatants with RNA levels of >250 ng/μL were aliquoted (100 μL), flash frozen in liquid nitrogen, and stored at −80°C.

[2] = target: human translation (HEK 293F lysate); experiment: Human in vitro translation (HsIVT) assay, HEK 293F lysate, luciferase reporter; type: biochemical
Source text: as §1, §2
FreeStyle human embryonic kidney (HEK) 293F cells (Thermo Fisher Scientific) were grown in 500-mL polycarbonate Erlenmeyer vented flasks (Corning) containing FreeStyle 293 expression medium (Life Technologies) upon reaching a density of approximately 2 × 10^6. Cells were then centrifuged at 1,000 × g for 10 min at 4°C, the medium was discarded, and the resulting pellet was washed once in buffer II containing 20 U of human placental RNase inhibitor (Sigma-Aldrich) and cOmplete EDTA-free inhibitor cocktail (Roche) before being centrifuged at 2,800 × g for 10 min. Clarified HEK cell lysate was obtained in the same way as described for P. falciparum lysate.
PfIVT and HsIVT reactions (5 μL final volume) were performed in 384-well plates (Corning) containing 50% lysate from cells (either P. falciparum or HEK 293F), 10% amino acid solution (final concentration of 400 μM for each amino acid in 60 mM KOH; biotechrabbit), 10% energy recovery solution (final assay concentrations of 40 mM HEPES [pH 7.4], 1.5 mM ATP, 0.15 mM GTP, […] creatine phosphate, and 40 U/mL creatine phosphokinase), 10% helper solution (final assay concentrations of 200 μM cystine, 2% polyethylene glycol 3000 [PEG 3000], 1 mM spermidine, 0.5 mM folinic acid, and 15 μM leupeptin), 10% supplemental salt solution (22.5 mM HEPES [pH 7.4], 50 mM potassium acetate, 1 mM magnesium acetate, 1 mM DTT, 1 U/mL human placental RNase inhibitor, 0.1 mM leupeptin), and 10% cbg99 luciferase mRNA (3,000 ng/mL). A master mix solution containing all components was prepared on ice prior to assays, and 5 μL was dispensed into wells using an automated Integra VIAFLO 16-channel 12.5-μL pipette.

CBG99 luciferase = CBG99 luciferase (Pyrophorus plagiophthalamus, UniProt Q7M4K1); experiment: Luciferase counterscreen (false-positive counterscreen); type: biochemical, click beetle; conditions: read-out: IC50 value (μM) Counterscreen, weighted mean ± SD of two technical replicates
Chain of CBG99 luciferase (Q7M4K1 entry or part of it): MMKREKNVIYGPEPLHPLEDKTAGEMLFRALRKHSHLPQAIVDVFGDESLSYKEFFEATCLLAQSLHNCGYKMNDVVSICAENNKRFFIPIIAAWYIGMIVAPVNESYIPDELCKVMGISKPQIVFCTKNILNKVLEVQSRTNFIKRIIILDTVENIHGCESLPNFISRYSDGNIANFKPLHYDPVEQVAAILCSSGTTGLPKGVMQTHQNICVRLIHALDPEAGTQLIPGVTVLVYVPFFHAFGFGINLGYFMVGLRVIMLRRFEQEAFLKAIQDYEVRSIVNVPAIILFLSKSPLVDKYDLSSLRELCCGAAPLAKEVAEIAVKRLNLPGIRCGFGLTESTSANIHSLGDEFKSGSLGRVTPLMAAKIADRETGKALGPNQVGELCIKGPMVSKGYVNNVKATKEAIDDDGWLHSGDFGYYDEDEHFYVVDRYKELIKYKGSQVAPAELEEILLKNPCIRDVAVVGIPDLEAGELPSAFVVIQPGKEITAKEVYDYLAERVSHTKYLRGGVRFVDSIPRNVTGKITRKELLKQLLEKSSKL
Method: Hits identified in our primary assay screen were assessed for their potential to interfere with the cbg99 luciferase reporter. For this counterscreen, the master mix containing all the components required for translation (as described above) was incubated for 210 min at 32°C, resulting in the in vitro translation of cbg99 luciferase. The produced luciferase was then incubated with test compounds for 5 min prior to the addition of luciferase reaction buffer. […] Hits from the primary screen were assessed as luciferase inhibitors in 8-point dose-dependent assays ranging from 30 μM to 13.7 nM (1:3 dilutions). Levels of luciferase inhibition were determined relative to the positive control.

[3] = test system: asexual-blood-stage P. falciparum; conditions: cited from earlier work
[4] = test system: asexual-blood-stage (ABS) P. falciparum; experiment: SYBR green-based P. falciparum asexual growth inhibition assay; type: cell-based; conditions: Plasmodium falciparum
Method: The Plasmodium falciparum reference strain 3D7 used throughout this study was cultured as previously described ([39]). Briefly, cultures incubated at 37°C in a humidified atmosphere of 1% O2 and 3% CO2 in balance with N2 were maintained in RPMI 1640 media supplemented with 5% A^+ human red blood cells (provided by the Scottish National Blood Transfusion Service), 25 mM HEPES, 2 mM L-glutamine, 0.5% AlbuMAX II (Gibco), 12 mM sodium bicarbonate, 0.2 mM hypoxanthine, and 20 mg/L gentamicin (pH 7.3).
Our SYBR green asexual-growth assay was based on a previous report ([45]). In brief, 96-well black clear-bottom plates (Corning) were preprinted with a compound and normalized with DMSO to 0.5% of a total assay volume of 100 μL. Highly synchronized ring-stage parasites and blood were added to a 2% final parasitemia and 1% hematocrit. The compounds were incubated with parasites for 72 h prior to freezing at −20°C (to aid cell lysis). The plate was thawed on ice and lysis buffer (20 mM Tris pH 7.5, 5 mM EDTA, 0.008% [w/v] saponin, […]) containing SYBR green I (Thermo Fisher Scientific) at a final concentration of 0.02% (v/v) was added. The 96-well plate was equilibrated to room temperature for 1 h before fluorescence was determined on a TECAN Infinite Pro 200 microplate reader using green fluorescent protein (GFP) filters (excitation, 485 nm; emission, 535 nm). Data were fitted to a two-parameter equation using GraFit version 7.0 (Erithacus Software), and EC50 values were calculated. An excess of the standard inhibitor mefloquine (10 μM) was used to define 0% parasite growth.

[5] = Pathogen Box hits, 8-point, weighted mean ± SD of two technical replicates, read-out: IC50 value (μM) PfIVT
[6] = Pathogen Box hits, weighted mean ± SD of two technical replicates, read-out: IC50 value (μM) HsIVT
[7] = P. falciparum 3D7 cell line, read-out: P. falciparum asexual-blood-stage EC50
[8] = P. falciparum Dd2 cell line, read-out: P. falciparum asexual-blood-stage EC50

## O=C(NCCN1CCCC1)c1cc(NCCN2CCOCC2)nc2ccc(Cl)cc12 [MMV634140]
[1]; [5]
  IC50: 2.9 ± 0.09 µM
[1]; Table 3, read-out: PfIVT IC50
  IC50: 3 ± 0.09 µM
[1]; Pathogen Box
  PfIVT inhibition at 30 μM (%): 88.4%
[2]; [6]
  IC50: > 30 µM
CBG99 luciferase; Pathogen Box hits
  IC50: > 30 µM
[3]; [7]
  EC50: 0.09 µM
[3]; asexual-blood-stage P. falciparum, Table 3 footnote: 3D7, read-out: ABS EC50 (text)
  EC50: 0.041 µM

## O=C(NCCN1CCCC1)c1cc(NCCCCN2CCC(F)(F)CC2)nc2ccc(Cl)cc12 [MMV667494]
[1]
  selectivity index/window, PfIVT compared to HsIVT: ≥ 30 fold
[1]; [5]
  IC50: 0.3 ± 0.09 µM
[1]; Table 3, read-out: PfIVT IC50
  IC50: 0.3 ± 0.09 µM
[1]; Pathogen Box
  PfIVT inhibition at 30 μM (%): 97.7%
[2]; [6]
  IC50: > 30 µM
CBG99 luciferase; Pathogen Box hits
  IC50: > 30 µM
[3]; [7]
  EC50: 0.01 µM

## O=C(Nc1c(O)cccc1-c1nc2c(C(=O)O)cccc2o1)c1cc(-c2ccccc2)on1 [MMV676008]
[1]
  selectivity index/window, PfIVT compared to HsIVT: ≥ 30 fold
[1]; [5]
  IC50: 0.4 ± 0.08 µM
[1]; Table 3, read-out: PfIVT IC50
  IC50: 0.4 ± 0.08 µM
[1]; read-out: PfIVT IC50 (text)
  IC50: 0.04 µM
[1]; Pathogen Box
  PfIVT inhibition at 30 μM (%): 74.9%
[2]; [6]
  IC50: 12 ± 0.4 µM
CBG99 luciferase; Pathogen Box hits
  IC50: 21 ± 0.6 µM
[3]; [7]
  EC50: > 20 µM
[3]; Table 3 footnote: 3D7, read-out: EC50 against P. falciparum (text)
  EC50: > 25 µM

## O=C(Nc1ccc(C(F)(F)F)c(C(F)(F)F)c1)c1cc(Cl)ccc1O [MMV687807]
[1]
  selectivity index/window, PfIVT compared to HsIVT: ≤ 5 fold
[1]; [5]
  IC50: 0.09 ± 0.007 µM
[1]; Table 3, read-out: PfIVT IC50
  IC50: 0.09 ± 0.007 µM
[1]; Pathogen Box
  PfIVT inhibition at 30 μM (%): 95.1%
[2]; [6]
  IC50: 0.5 ± 0.006 µM
CBG99 luciferase; Pathogen Box hits
  IC50: 25 ± 0.8 µM
[3]; [7]
  EC50: 1.8 µM

## O=C(Nc1ccc(F)c(-c2nc3cc(-c4ccccc4)cnc3[nH]2)c1)N1CCCC1 [MMV688372]
[1]; Pathogen Box
  PfIVT inhibition at 30 μM (%): 62.9%
[4]; 3D7, 72 h, read-out: P. falciparum asexual-blood-stage EC50
  EC50: 13.6 µM
[4]; read-out: EC50 against P. falciparum (text)
  EC50: 14 µM

## Cc1ccc(NC(=O)c2cc(Cl)ccc2O)cc1 [MMV1578897]
[1]; Pandemic Box
  PfIVT inhibition at 30 μM (%): 93.4%
[3]; [8]
  EC50: 5 µM

## Nc1nc(NC2Cc3ccc(F)cc3C2)nc(N2CCCCC2)n1 (stereo not shown) [MMV1580839]
[1]
  PfIVT IC50 (μM): submicromolar potency
[1]; Pandemic Box hits, 8-point, weighted mean ± SD of two technical replicates, read-out: IC50 value (μM) PfIVT
  IC50: 0.8 ± 0.08 µM
[1]; Table 3, read-out: PfIVT IC50
  IC50: 0.8 ± 0.08 µM
[1]; Pandemic Box
  PfIVT inhibition at 30 μM (%): 73.3%
[2]; Pandemic Box hits, weighted mean ± SD of two technical replicates, read-out: IC50 value (μM) HsIVT
  IC50: 7.6 ± 0.12 µM
[2]; read-out: HsIVT IC50 (text)
  IC50: 8 µM
CBG99 luciferase; Pandemic Box hits
  IC50: 8.3 ± 0.08 µM
[3]; [8]
  EC50: 5 µM
